What all share (format): cell-based, human
Assay [1] has as its system Jurkat cells. Briefly: Flow cytometry (PI, La, hTERT, TRF2 staining) of Jurkat cells after cytotoxic treatment. The following applies: FIG. 4B; for hTERT staining of Jurkat cells: 48 h treatment, only in PI high cells. The procedure: (§1) FIG. 4 is a graphical representation of the cytotoxic treatment of malignant human cells results in increased expression of TRF2 and La in apoptotic cells 24 h after treatment and in increased expression of hTERT in apoptotic cells 48 h after treatment. A. Jurkat cells after 24 h treatment with cytotoxic agents. […] B. Jurkat cells after 48 h treatment with cytotoxic agents. […] C. Raji cells after 24 h treatment with cytotoxic agents. […] D. Jurkat cells after 24 h treatment with cytotoxic agents. […] E. Jurkat cells after 48 h treatment with cytotoxic agents. Staining for La (3B9-F1TC) and TRF2 in apoptotic cells was more evident 48 h after treatment with all cytotoxic agents. F. Raji cells after 48 h treatment with cytotoxic agents. […] G. HeLa cells after 48 h treatment with cytotoxic agents. […] In each case, the staining is indicated above each column of panels and the cytotoxic employed is indicated to the left of each row of panels. Also indicated is a PI only control and negative controls for hTERT staining (purified rat IgG or anti-rat secondary antibody alone) and for TRF2 staining (purified mouse IgG or anti-mouse secondary antibody alone).
(§2) The Jurkat and Raji cell lines were cultured in RPMI supplemented with 10% FCS, 50 U/mL penicillin and 50 μg/mL streptomycin sulphate and the U2OS and HeLa cell lines were cultured in DMEM supplemented with 10% FCS, 50 U/mL penicillin and 50 μg/mL streptomycin sulphate (JRH Laboratories). The cell lines were treated for 24 or 48-hour periods with various cytotoxic agents as follows: Jurkat and Raji cells with etoposide, 20 μg/mL; HeLa and U2OS cells with cisplatin, 1 μg/mL, and vincristine, 0.1 μg/mL; Jurkat, HeLa and U2OS cells with 0.5 μM STS, and Raji cells with 2 μM STS. The treated cells were stained with propidium iodide (PI) (Sigma) 0.5 μg/mL and FITC-conjugated Sal5 or 3B9 mAb, or mouse anti-TRF2 mAb (clone 36, Becton-Dickinson) and then secondary antibody, anti mouse FITC (Chemicon, Temecula, Calif., USA), or rat anti-hTERT mAb (clone 36-10, Alexis Biochemicals) and then secondary antibody, anti rat FITC (Caltag, Burlingame, Calif., USA). Purified mouse IgG or rat IgG (Institute of Medical and Veterinary Science, Adelaide, Australia) were used as negative controls for TRF2 and hTERT staining, respectively. To further improve the method for detection of hTERT for later use in whole blood staining, which appeared to have been hindered by the presence of autofluorescence presumably emanating from red blood cells, anti-hTERT monoclonal antibody clone 36-10 was conjugated directly to AlexaFluor350 (Molecular Probes), which is excited at 355 nm and emits maximally between 420-460 nm. Anti-hTERT-Alexa350 was combined with the EpCAM monoclonal antibody (BD Biosciences), which is conjugated to PE that excites at 488 nm and emits 560-590 nm, and the nuclear impermeant DNA-binding dye TOPRO-3 (Molecular Probes), which excites at 560 nm and emits maximally in the far red region (>650 nm).
The human T cell leukemia cell line, Jurkat, and the human B lymphoma cell line, Raji, were treated for 24 or 48 hour periods with the following cytotoxic agents: staurosporine, which is a pan-kinase inhibitor, etoposide, which is a topoisomerase II inhibitor, vincristine, which is a microtubule depolymerising agent and cisplatin, which is a DNA cross linking agent. Cells were then stained with propidium iodide (PI) and the anti-La monoclonal antibody (mAb), 3B9, or its isotype control, Sal5, or with mAbs specific for hTERT or TRF2. As negative controls for staining with the hTERT- or TRF2-specific mAbs, rat IgG and anti-rat secondary antibody or mouse IgG and anti-mouse secondary antibody, respectively, were used.
For orientation: Flow cytometry measures light scatter and fluorescence of single cells or particles in a stream.

For a further assay, the system named is Raji cells. Briefly: Flow cytometry (PI, La, hTERT, TRF2 staining) of Raji cells after cytotoxic treatment. The following applies: for TRF2 staining of Raji cells: 48 hours, FIG. 4F. The procedure: as §1
as §2, with “Anti-hTERT-Alexa350 was combined with the EpCAM monoclonal antibody (BD Biosciences), which is conjugated to PE that excites at 488 nm and emits 560-590 nm, and the nuclear impermeant DNA-binding dye TOPRO-3 (Molecular Probes), which excites at 560 nm and emits maximally in the far red region (>650 nm).” left out

The next assay deals with HeLa cells. The assay can be described thus: Flow cytometry (PI, La, hTERT, TRF2 staining) of HeLa cells after cytotoxic treatment. The following applies: FIG. 4G; for apoptosis and La staining in HeLa cells: 48 h treatment. The method, then: as §1, §2
Similarly, TRF2 staining of PI^+ dead Jurkat cells was evident as soon as 24 hours after cytotoxic treatment (FIG. 4D) and 48 hours afterwards (F1G. 4E). […] In contrast, it took 48 hours after treatment with cisplatin, etoposide and vincristine for hTERT staining of PI^+ dead Jurkat cells to be evident (arrows, FIG. 4B). hTERT staining of PI^+ dead Raji cells was evident 48 hours after treatment with vincristine (arrow, FIG. 4C). As additional controls, the telomerase-expressing human cervical carcinoma cell line, HeLa, and the telomerase-negative human osteosarcoma cell line, U2OS (M Frolkis et al. Cancer Gene Therapy 10, 239-249, 2003), were also treated with staurosporine, vincristine and etoposide and analysed by flow cytometry 48 hours after treatment.

Assay [2] concerns U2OS cells. The assay can be described thus: Flow cytometry (PI, La, hTERT, TRF2 staining) of U2OS cells after cytotoxic treatment. The following applies: FIG. 4H. The procedure: as §1, §2
Similarly, TRF2 staining of PI^+ dead Jurkat cells was evident as soon as 24 hours after cytotoxic treatment (FIG. 4D) and 48 hours afterwards (F1G. 4E). […] As additional controls, the telomerase-expressing human cervical carcinoma cell line, HeLa, and the telomerase-negative human osteosarcoma cell line, U2OS (M Frolkis et al. Cancer Gene Therapy 10, 239-249, 2003), were also treated with staurosporine, vincristine and etoposide and analysed by flow cytometry 48 hours after treatment.

For a further assay, the system named is H69 cells. The assay can be described thus: BerEP4-FITC / PI staining of etoposide-treated H69 cells. The following applies: 48 hours. The method, then: FIG. 8 is a graphical representation of the staining of H69 cells using the anti-epithelial marker monoclonal antibody BerEP4-FITC. H69 cells (1×10^6 cells/mL) were cultured in RPMI-1640 containing 5% FCS in the absence or presence of the specified concentrations of etoposide (0-400 μg/mL). After 48 hours of incubation, cells were collected and incubated at room temperature for 15 minutes with (A) 5 μg/mL BerEP4-FITC or (B) 5 μg/mL mouse IgG2aκ-FITC isotype. Cells were washed and pellets were resuspended in 0.5 μg/mL solution of PI in PBS then analysed by flow cytometry.

Assay [3] relates to U2OS cells. Briefly: Viability analysis using trypan blue staining after induction of apoptosis, U2OS cells. The following applies: 0.5 μM staurosporine. The method, then: (§3) Jurkat cells (ATCC #TIB-152) were maintained in RPMI 1640 supplemented with 5% fetal calf serum (FCS). U2OS cells (ATCC #HTB-96) were maintained in DMEM supplemented with 5% FCS and passaged every 48-72 hours after detachment with Trypsin EDTA. Jurkat cells express telomerase and thus have the integral RNA component, hTR, whereas U2OS cells lack telomerase and hTR. Apoptosis was induced by the addition of 0.5 μM staurosporine to the culture media for 24, 48 or 72 hours.
(§4) The RNA for hTR was not detected in the hTR-negative U2OS cells but was detected in the hTR-positive Jurkat cells 24, 48 and 72 hours after the induction of apoptosis.

For assay [4], the system named is Jurkat cells. Briefly: Viability analysis using trypan blue staining after induction of apoptosis, Jurkat cells. The following applies: 0.5 μM staurosporine. The procedure:
as §3, §4

The next assay deals with PBMC. Briefly: hTERT / 7-AAD staining of PBMC after staurosporine-induced apoptosis. The following applies: 24 hours after induction of apoptosis, 1 μM staurosporine, FIG. 5. The procedure:
(§5) FIG. 5 is a graphical representation of the culturing of PMBC with conconavalin A (conA) 10 μg/mL for 72 h. Viable cells were obtained by density gradient centrifugation and then apoptosis was induced using 1 μM staurosporine for 24 h. Jurkat cells were also treated with 1 μM staurosporine for 24 h. Dot plots depict staining for 7-AAD and hTERT. The negative control is staining with the secondary antibody alone.
(§6) Peripheral blood mononuclear cells (PBMC) were prepared from a buffy coat of a discarded unit of whole blood that had been obtained from the South Australian Red Cross Blood Bank. Initially, PBMC had been separated by density gradient centrifugation over Lymphoprep (Axis-Shield, Dundee, UK) and frozen in aliquots using a controlled rate freezer. […]
(§7) After treatment, all cells were harvested, washed in PBS and stained with 7-amino actinomycin D (7-AAD) (2 μg/mL) and anti-La 3B9 mAb or its isotype control mAb, Sal5, and then with the secondary anti-mouse antibody conjugated to R-phycoerythrin (Zymed, San Francisco, Calif., USA), or with rat anti-hTERT mAb (Alexis Biochemicals, San Diego, Calif., USA) and then with the secondary anti-rat antibody conjugated to FITC (Chemicon). Cells were analysed using a FACScan (Becton Dickinson, Franklin Lakes, N.J., USA) and the results analysed with WinMDI v2.8 software.

Assay [5] concerns Jurkat cells. The assay can be described thus: hTERT / 7-AAD staining of Jurkat cells after staurosporine-induced apoptosis. The following applies: 24 hours after induction of apoptosis, 1 μM staurosporine, FIG. 5. The method, then:
as §5, §6, §7

Entries after “also recorded” stand apart in the source; their conditions may differ.

As for `N.N.[Cl][Pt][Cl]` [cisplatin], in the assay on Jurkat cells [1], the “hTERT staining of Jurkat cells” value is “increased staining for hTERT” and the “time after treatment for hTERT staining of PI+ dead Jurkat cells to be evident” value (from here on “time after treatment for hTERT staining”) was found to be 48 h. Further, the “TRF2 staining of Raji cells” value in the assay with Raji cells is “slightly increased staining; also recorded: increased TRF2 staining”.

On to `COc1cc([C@@H]2c3cc4c(cc3[C@@H](O[C@@H]3O[C@@H]5CO[C@@H](C)O[C@H]5[C@H](O)[C@H]3O)[C@H]3COC(=O)[C@H]23)OCO4)cc(OC)c1O` [etoposide], for which, in the assay with Jurkat cells [1], the “hTERT staining of Jurkat cells” value is “increased staining for hTERT” and the “time after treatment for hTERT staining” value is 48 h. In the assay on HeLa cells (48 hours after treatment), the “TRF2 staining of PI+ dead HeLa cells” value is reported as “Evident staining; also recorded: little staining for TRF2” and the “hTERT staining of PI+ dead HeLa cells” value is reported as “Evident staining; also recorded: staining for hTERT”. In the assay with HeLa cells, the “apoptosis and La staining in HeLa cells” value is on record as “induced apoptosis”. Besides, the “hTERT staining of PI+ dead U2OS cells” value in the assay with U2OS cells [2] (48 hours after treatment) is given as “not”. In the assay on H69 cells (FIG. 8A), the “etoposide concentration giving maximal proportion of dead (BerEP4+ PI+) H69 carcinoma cells” value was in the range of 200 to 400 µg/mL. The “extent of cell death of H69 cells” value with H69 cells (etoposide 0-400 μg/mL, FIG. 8) was “dose-dependent”.

In the case of `CN[C@@H]1C[C@H]2O[C@@](C)([C@@H]1OC)n1c3ccccc3c3c4c(c5c6ccccc6n2c5c31)C(=O)NC4` [staurosporine], the entries for the “U2OS cells dead (trypan blue)” value in the assay with U2OS cells [3] (24 hours), in the assay with U2OS cells [3] (48 hours) and in the assay with U2OS cells [3] (72 hours) were 36%, 95% and 100%, respectively. Further, the “Jurkat cells dead (trypan blue)” value in the assay on Jurkat cells [4] (24 hours) is listed as 40%; in the assay on Jurkat cells [4] (48 hours), 85%; in the assay with Jurkat cells [4] (72 hours), 100%. The “hTERT staining of PI+ dead HeLa cells” value in the assay with HeLa cells (48 hours after treatment) is on record as “Evident staining; also recorded: staining for hTERT”. Further, the “apoptosis and La staining in HeLa cells” value in the assay with HeLa cells is “induced apoptosis”. Besides, in the assay on U2OS cells [2] (48 hours after treatment), the “TRF2 staining of PI+ dead U2OS cells” value was “no corresponding staining”. The “hTERT staining of PI+ dead U2OS cells” value with U2OS cells [2] (48 hours after treatment) was “not and no corresponding staining”. The “apoptosis and La staining in U2OS cells” value in the assay with U2OS cells [2] (48 h treatment) is “induced apoptosis”. The “telomerase expression in dead PBMC” value with PBMC was “little if any”. The “telomerase expression in Jurkat cells” value in the assay on Jurkat cells [5] is recorded as “little if any”.

Regarding `CC[C@]1(O)C[C@H]2CN(CCc3c([nH]c4ccccc34)[C@@](C(=O)OC)(c3cc4c(cc3OC)N(C=O)[C@H]3[C@@](O)(C(=O)OC)[C@H](OC(C)=O)[C@]5(CC)C=CCN6CC[C@]43[C@@H]65)C2)C1` [vincristine], in the assay on Jurkat cells [1], the “hTERT staining of Jurkat cells” value is on record as “increased staining for hTERT” and the “time after treatment for hTERT staining” value stood at 48 h. Also, the “hTERT staining of Raji cells” value in the assay with Raji cells (24 h treatment (legend FIG. 4C)) is “marginally increased staining”. Further, in the assay on Raji cells (48 hours after treatment (text, FIG. 4C)), the “hTERT staining of PI+ dead Raji cells” value was “evident”. In the assay with Raji cells, the “TRF2 staining of Raji cells” value is on record as “slightly increased staining; also recorded: increased TRF2 staining”. Further, the “hTERT staining of PI+ dead HeLa cells” value in the assay with HeLa cells (48 hours after treatment) was “Evident staining; also recorded: staining for hTERT”. The “apoptosis and La staining in HeLa cells” value in the assay with HeLa cells is “induced apoptosis”. Moreover, the “hTERT staining of PI+ dead U2OS cells” value in the assay on U2OS cells [2] (48 hours after treatment) was “not”.

For the origin of these results see US20090214420A1, “Method of Diagnosis and Treatment and Agents Useful for Same” (MEDVET SCIENCE PTY. LTD., priority 2005, published 2009).
